Laboratory results: article PMC12090182, “Repurposing of the RIPK1-Selective Benzo[1,4]oxazepin-4-one Scaffold for the Development of a Type III LIMK1/2 Inhibitor” (ACS Chemical Biology, 2025)

Tested on: MRC-9 cells
Assay: Multiplex high-content viability assessment
Assay type: cell-based
Conditions: for Cell count normalized to cells treated with DMSO control / Cell count per well / Population Fragmented Nuclei (%) / Population Healthy Nuclei (%) / Population Pyknosed Nuclei (%) / Population apoptotic cell (%) / Population cell that influence microtubule strucutre (%) / Population with increased mitochondrial mass (%) / Population with membrane disruption (%): human fibroblast
Summary of the method: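 HEK293T and U2OS cells (DMEM) and MRC-9 fibroblasts (EMEM) exposed to compounds at 1 and 10 μM. Live-cell confocal imaging of cell shape and fluorescence before and at 12, 24 and 48 h. Normalized to 0.1% DMSO; biological duplicates with SEM.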

## CN1C(=O)[C@@H](N2CCc3c(nn(Cc4ccccc4)c3C(N)=O)C2=O)COc2cc(Cl)ccc21 [Compound 10, (S)-2-benzyl-6-(8-chloro-5-methyl-4-oxo-2,3,4,5-tetrahydrobenzo[b][1,4]oxazepin-3-yl)-7-oxo-4,5,6,7-tetrahydro-2H-pyrazolo[3,4-c]pyridine-3-carboxamide]
1 µM, 0 h, replicate 1
  Cell count normalized to cells treated with DMSO control: 0.9542
  Cell count per well: 143
  Population Fragmented Nuclei (%): 19.86%
  Population Healthy Nuclei (%): 56.74%
  Population Pyknosed Nuclei (%): 23.40%
  Population apoptotic cell (%): 42.42%
  Population cell that influence microtubule strucutre (%): 27.50%
  Population with increased mitochondrial mass (%): 11.25%
  Population with membrane disruption (%): 1.25%
1 µM, 0 h, replicate 2
  Cell count normalized to cells treated with DMSO control: 1.071
  Cell count per well: 191
  Population Fragmented Nuclei (%): 17.68%
  Population Healthy Nuclei (%): 56.35%
  Population Pyknosed Nuclei (%): 25.97%
  Population apoptotic cell (%): 19.15%
  Population cell that influence microtubule strucutre (%): 32.35%
  Population with increased mitochondrial mass (%): 4.90%
  Population with membrane disruption (%): 4.90%
1 µM, 12 h, replicate 1
  Cell count normalized to cells treated with DMSO control: 0.9165
  Cell count per well: 138
  Population Fragmented Nuclei (%): 13.43%
  Population Healthy Nuclei (%): 56.72%
  Population Pyknosed Nuclei (%): 29.85%
  Population apoptotic cell (%): 55.00%
  Population cell that influence microtubule strucutre (%): 31.58%
  Population with increased mitochondrial mass (%): 3.95%
  Population with membrane disruption (%): 0.00%
1 µM, 12 h, replicate 2
  Cell count normalized to cells treated with DMSO control: 1.033
  Cell count per well: 172
  Population Fragmented Nuclei (%): 18.52%
  Population Healthy Nuclei (%): 51.23%
  Population Pyknosed Nuclei (%): 30.25%
  Population apoptotic cell (%): 36.73%
  Population cell that influence microtubule strucutre (%): 48.19%
  Population with increased mitochondrial mass (%): 3.61%
  Population with membrane disruption (%): 9.64%
1 µM, 24 h, replicate 1
  Cell count normalized to cells treated with DMSO control: 0.9086
  Cell count per well: 137
  Population Fragmented Nuclei (%): 12.03%
  Population Healthy Nuclei (%): 64.66%
  Population Pyknosed Nuclei (%): 23.31%
  Population apoptotic cell (%): 64.52%
  Population cell that influence microtubule strucutre (%): 32.56%
  Population with increased mitochondrial mass (%): 8.14%
  Population with membrane disruption (%): 2.33%
1 µM, 24 h, replicate 2
  Cell count normalized to cells treated with DMSO control: 1.049
  Cell count per well: 173
  Population Fragmented Nuclei (%): 26.25%
  Population Healthy Nuclei (%): 51.25%
  Population Pyknosed Nuclei (%): 22.50%
  Population apoptotic cell (%): 47.22%
  Population cell that influence microtubule strucutre (%): 46.34%
  Population with increased mitochondrial mass (%): 3.66%
  Population with membrane disruption (%): 8.54%
1 µM, 48 h, replicate 1
  Cell count normalized to cells treated with DMSO control: 0.9623
  Cell count per well: 146
  Population Fragmented Nuclei (%): 16.91%
  Population Healthy Nuclei (%): 63.97%
  Population Pyknosed Nuclei (%): 19.12%
  Population apoptotic cell (%): 76.92%
  Population cell that influence microtubule strucutre (%): 25.29%
  Population with increased mitochondrial mass (%): 4.60%
  Population with membrane disruption (%): 1.15%
1 µM, 48 h, replicate 2
  Cell count normalized to cells treated with DMSO control: 1.056
  Cell count per well: 172
  Population Fragmented Nuclei (%): 23.95%
  Population Healthy Nuclei (%): 59.28%
  Population Pyknosed Nuclei (%): 16.77%
  Population apoptotic cell (%): 75.00%
  Population cell that influence microtubule strucutre (%): 54.55%
  Population with increased mitochondrial mass (%): 5.05%
  Population with membrane disruption (%): 7.07%
1 μM, MRC-9
  cytotoxicity: no cytotoxicity
10 µM, 0 h, replicate 1
  Cell count normalized to cells treated with DMSO control: 1.081
  Cell count per well: 162
  Population Fragmented Nuclei (%): 15.72%
  Population Healthy Nuclei (%): 65.41%
  Population Pyknosed Nuclei (%): 18.87%
  Population apoptotic cell (%): 33.33%
  Population cell that influence microtubule strucutre (%): 22.12%
  Population with increased mitochondrial mass (%): 9.62%
  Population with membrane disruption (%): 0.96%
10 µM, 0 h, replicate 2
  Cell count normalized to cells treated with DMSO control: 0.8971
  Cell count per well: 160
  Population Fragmented Nuclei (%): 22.07%
  Population Healthy Nuclei (%): 49.66%
  Population Pyknosed Nuclei (%): 28.28%
  Population apoptotic cell (%): 34.15%
  Population cell that influence microtubule strucutre (%): 44.44%
  Population with increased mitochondrial mass (%): 9.72%
  Population with membrane disruption (%): 5.56%
10 µM, 12 h, replicate 1
  Cell count normalized to cells treated with DMSO control: 1.162
  Cell count per well: 175
  Population Fragmented Nuclei (%): 18.93%
  Population Healthy Nuclei (%): 60.36%
  Population Pyknosed Nuclei (%): 20.71%
  Population apoptotic cell (%): 48.57%
  Population cell that influence microtubule strucutre (%): 53.92%
  Population with increased mitochondrial mass (%): 8.82%
  Population with membrane disruption (%): 1.96%
10 µM, 12 h, replicate 2
  Cell count normalized to cells treated with DMSO control: 0.8225
  Cell count per well: 137
  Population Fragmented Nuclei (%): 27.87%
  Population Healthy Nuclei (%): 49.18%
  Population Pyknosed Nuclei (%): 22.95%
  Population apoptotic cell (%): 25.00%
  Population cell that influence microtubule strucutre (%): 60.00%
  Population with increased mitochondrial mass (%): 5.00%
  Population with membrane disruption (%): 3.33%
10 µM, 24 h, replicate 1
  Cell count normalized to cells treated with DMSO control: 1.1009
  Cell count per well: 166
  Population Fragmented Nuclei (%): 25.32%
  Population Healthy Nuclei (%): 55.06%
  Population Pyknosed Nuclei (%): 19.62%
  Population apoptotic cell (%): 54.84%
  Population cell that influence microtubule strucutre (%): 45.98%
  Population with increased mitochondrial mass (%): 10.34%
  Population with membrane disruption (%): 1.15%
10 µM, 24 h, replicate 2
  Cell count normalized to cells treated with DMSO control: 0.8977
  Cell count per well: 148
  Population Fragmented Nuclei (%): 34.56%
  Population Healthy Nuclei (%): 47.06%
  Population Pyknosed Nuclei (%): 18.38%
  Population apoptotic cell (%): 40.00%
  Population cell that influence microtubule strucutre (%): 65.63%
  Population with increased mitochondrial mass (%): 9.38%
  Population with membrane disruption (%): 1.56%
10 µM, 48 h, replicate 1
  Cell count normalized to cells treated with DMSO control: 1.1403
  Cell count per well: 173
  Population Fragmented Nuclei (%): 22.56%
  Population Healthy Nuclei (%): 61.59%
  Population Pyknosed Nuclei (%): 15.85%
  Population apoptotic cell (%): 84.62%
  Population cell that influence microtubule strucutre (%): 40.59%
  Population with increased mitochondrial mass (%): 5.94%
  Population with membrane disruption (%): 0.00%
10 µM, 48 h, replicate 2
  Cell count normalized to cells treated with DMSO control: 0.9149
  Cell count per well: 149
  Population Fragmented Nuclei (%): 33.82%
  Population Healthy Nuclei (%): 56.62%
  Population Pyknosed Nuclei (%): 9.56%
  Population apoptotic cell (%): 46.15%
  Population cell that influence microtubule strucutre (%): 61.04%
  Population with increased mitochondrial mass (%): 6.49%
  Population with membrane disruption (%): 2.60%
MRC-9, 1 μM (Figure 6)
  impact on tubulin, mitochondrial mass, and cellular permeability in healthy cells: comparable to that of the 0.1% DMSO control
